Series [1] has as its system HL-60 cells. In words: Trypan blue exclusion assay. The series is classed as cell-based, human. The conditions noted are these: HL-60, 24 h, 1 μM. As for the experimental part:
The number of viable cells and non-viable (take up trypan blue) were counted by TBE method. Shortly, 90 μL was removed from the cell suspension and 10 μL of trypan blue (0.4%) was added. Cell counting was performed using a light microscope with a neubauer chamber.

For series [2], the system named is HL-60 cells. The series can be described thus: Morphological analysis (May-Grunwald-Giemsa staining, light scattering). Particulars: HL-60, 12 and 24 h; DOX 1 µM. In kind it is cell-based, human. As for the experimental part: To cell morphology evaluation, slides were prepared using cytospin and stained with May-Grunwald-Giemsa. Morphological changes were assessed by light microscopy (Olympus BX41, Tokyo, Japan) using Image-Pro software (Media Cybernetics, Inc. Silver Spring, USA). Light scattering features were determined by flow cytometry. At least 10^4 events were recorded per sample using a BD LSRFortessa cytometer along with BD FACSDiva Software (BD Biosciences, San Jose, CA, USA) and Flowjo Software 10 (Flowjo LCC, Ashland, OR, USA). Cellular debris was omitted from the analysis.

The next series deals with HL-60 cell xenografts. The series can be described thus: Human myeloid leukemia xenograft model. The series is classed as in vivo, C.B-17 SCID mice. The conditions noted are these: 0.1 mg/kg intraperitoneal once a day for 13 consecutive days. The protocol:
Fifty six specific-pathogen-free (SPF) C.B-17 severe combined immunodeficient (SCID) mice (females, 23–26 g) were used in this study. The animals were obtained and maintained at animal facilities from Gonçalo Moniz Institute-FIOCRUZ (Salvador, Bahia, Brazil), and housed in cages with free access to food and water, and kept under a 12:12 h light-dark cycle (lights on at 6:00 a.m.). The animals were treated according to ethical principles for animal experimentation of SBCAL (Brazilian Association of Laboratory Animal Science), Brazil. Experimental protocol have been approved (number 06/2015) by Animal Ethics Committee of Gonçalo Moniz Institute-FIOCRUZ (Salvador, Bahia, Brazil).
Human myeloid leukemia xenograft model was carry out as described previously by Rodrigues et al.[26] with minor modifications. HL-60 cells (2.5 × 10^7 cells/500 µL) were implanted subcutaneously into the left front armpit of the mice. […] When the tumors reached 100 to 200 mm^3 (22 days after HL-60 cells injection), the animals were treated through the intraperitoneal route (200 µL per animal) once a day for 13 consecutive days. One day after the end of the treatment, the animals were anesthetized, and peripheral blood samples were collected from brachial artery. Animals were euthanized by anesthetic overdose, and tumors were excised and weighed.

In series [3] the test system is PBMC (human peripheral blood mononuclear cells). In words: Cytotoxicity, alamar blue assay. The series is classed as cell-based. Particulars: Homo sapiens, PBMC, non-cancer cells, 72 h, read-out: IC50 and 95% CI, PBMC. An excerpt: HL-60 (human acute promyelocytic leukemia), K-562 (human chronic myelogenous leukemia), HCT116 (human colon carcinoma), HepG2 (human hepatocellular carcinoma), HSC-3 (human oral squamous cell carcinoma), SCC-9 (human oral squamous cell carcinoma), B16-F10 (mouse melanoma), MRC-5 (human lung fibroblast), WT SV40 MEF (wild-type immortalized mouse embryonic fibroblast) and BAD KO SV40 MEF (BAD gene knockout immortalized mouse embryonic fibroblast) cell lines were obtained from American Type Culture Collection (ATCC, Manassas, VA, USA). Human peripheral blood mononuclear cells (PBMC) were isolated using standard Ficoll density gradient from heparinized blood collected from 20- to 35-year-old, non-smoker healthy donors with informed consent (number 031019/2013) approved by Human Ethics Committee of Gonçalo Moniz Institute from Oswaldo Cruz Foundation (IGM-FIOCRUZ/BA), and all experiments were performed in accordance with relevant guidelines and regulations. Cells were cultured as recommended by ATCC guidelines and a mycoplasma stain kit (Sigma-Aldrich) was used to validate the use of cells free from contamination. Cell viability in all experiments was examined using the trypan blue exclusion (TBE) assay. Over 90% of the cells were viable at the beginning of the culture.
(§1) Cytotoxicity was measured using alamar blue assay and was performed following the procedure that was described previously[21],[22]. Briefly, cells were inserted in 96-well plates and incubated overnight. Then, the complexes were dissolved in dimethyl sulfoxide (DMSO, LGC Biotechnology, São Paulo, SP, Brazil) and added to each well and incubated for 72 h. […] Before the end of treatment (4 h for cell lines and 24 h for PBMC), 20 μL of a stock solution (0.312 mg/mL) of alamar blue (resazurin, Sigma-Aldrich Co.) were added to each well. Absorbance at 570 nm and 600 nm was measured using SpectraMax 190 Microplate Reader (Molecular Devices, Sunnyvale, CA, USA).
A general note: Alamar Blue is a resazurin reagent that responds to reducing activity.

Series [4] deals with HL-60 cells. The series can be described thus: Mitochondrial transmembrane potential, rhodamine 123. The series is classed as cell-based, human. The conditions noted are these: HL-60, 24 h; DOX 1 µM. The protocol:
Mitochondrial transmembrane potential was determined by retention of dye rhodamine 123 as described previously. Briefly, cells were incubated with rhodamine 123 (5 μg/mL, Sigma-Aldrich Co.) at room temperature for 15 min in dark and washed with saline solution. Cells were incubated again in saline solution for more 30 min in dark and cell fluorescence was determined by flow cytometry as described above.

Series [5] deals with HL-60 cells. The series can be described thus: Apoptosis quantification, annexin V-FITC/PI flow cytometry. The series is classed as cell-based, human. The protocol: Shortly, cells were washed twice with saline solution and resuspended in 100 μL of binding buffer plus 5 μL of propidium iodide (PI) and 5 μL of FITC Annexin V. Then, cells were gently mixed by vortexing and incubated for 15 min at room temperature in the dark. Finally, 400 μL of binding buffer was added to each tube, and the cell fluorescence was determined by flow cytometry, as described above. Percentage of viable, early apoptotic, late apoptotic and necrotic cells were measured. […] Cells were then analyzed by FITC Annexin V Apoptosis Detection assay as described above.
In general terms: Flow cytometry measures light scatter and fluorescence of single cells or particles in a stream.

Series [6] is described as follows: Toxicological evaluation in xenograft mice. In kind it is in vivo, C.B-17 SCID mice. The conditions noted are these: doxorubicin 0.1 mg/kg. The protocol:
To assess toxicological aspects, mice were weighed at the beginning and at the end of the experiment as described previously by Rodrigues et al.[26]. […] Hematological analysis was performed using the Advia 60 hematology system (Bayer, Leverkusen, Germany). Livers, kidneys, lungs and hearts were removed, weighed and examined for any signs of macroscopic lesions, color changes and/or hemorrhages. After macroscopic examination, tumors, livers, kidneys, lungs and hearts were fixed in 4% formalin buffer and embedded in paraffin. Tissue sections were stained with hematoxylin/eosin staining, and a pathologist performed the histological analyses under optical microscopy.

The subject of series [7] is WT SV40 MEF (wild-type immortalized mouse embryonic fibroblasts). In words: Cytotoxicity, alamar blue assay. The series is classed as cell-based. Particulars: Mus musculus, MEF, 72 h, read-out: IC50, WT SV40 MEF cell line. The protocol: as §1
For series [8], the system named is BAD KO SV40 MEF (immortalized mouse embryonic fibroblast with the BAD gene knocked out). In words: Cytotoxicity, alamar blue assay. In kind it is cell-based. Particulars: Mus musculus, MEF, 72 h, read-out: IC50, BAD KO SV40 MEF cell line. As for the experimental part:
as §1

The subject of series [9] is HL-60 (human acute promyelocytic leukemia). The series can be described thus: Cytotoxicity, alamar blue assay. Particulars: Homo sapiens, HL-60; alamar blue, 72 h; read-out: IC50 and 95% CI, HL-60. In kind it is cell-based. As for the experimental part: as §1
Series [10] deals with SCC-4 (human oral squamous cell carcinoma). In words: Cytotoxicity, alamar blue assay. In kind it is cell-based. The conditions noted are these: Homo sapiens, SCC-4; alamar blue, 72 h; read-out: IC50 and 95% CI, SCC-4. The protocol: as §1

What is called IC50 is the point on the concentration scale where inhibition reaches its midpoint. With `COc1cccc2c1C(=O)c1c(O)c3c(c(O)c1C2=O)C[C@@](O)(C(=O)CO)C[C@@H]3O[C@H]1C[C@H](N)[C@H](O)[C@H](C)O1` [doxorubicin, reference compound], the “Reduction of the number of viable cells” value with HL-60 cells [1] was “reduced the number of viable cells”. Further, in the series on HL-60 cells [2], the “Cell morphology, May-Grunwald-Giemsa staining” value is “presented changes associated with apoptosis”. Moreover, in the series with HL-60 cell xenografts, the “Reduction of tumor weight” value stood at 62.0%. Also, the IC50 in series [3] stood at 5170 nM; in series [7] it was 40 nM; in series [8] it was 410 nM; in [9], 20 nM; in series [10], 1430 nM. The “Mitochondrial transmembrane potential, in words” value in the series on HL-60 cells [4] is “induced depolarization of mitochondrial transmembrane potential”. For the same molecule, the “Apoptotic cells, in words” value in the series with HL-60 cells [5] (HL-60, 12 and 24 h, DOX 1 µM) is “induced apoptosis”. Also, the “Apoptosis on cotreatment with pan-caspase inhibitor Z-VAD(OMe)-FMK, in words” value in the series with HL-60 cells [5] (HL-60, 2 h pre-treatment 50 µM Z-VAD(OMe)-FMK, then 24 h) is “led to apoptosis through caspases pathways”. Besides, the Kidney histopathology result in series [6] (complex 1 20 and 40 mg/kg) is listed as “Coagulation necrosis was observed in renal tubules”. Also, in [6] (complex 1 20 and 40 mg/kg), the Lung histopathology entry was “tumor nodules were observed only in one animal”. Also, in series [6] (mice bearing HL-60 cells, 13 days), the Body weight result is recorded as “decreased body weight”.

The values are drawn from PMC6686011, “Ruthenium(II) complexes with 6-methyl-2-thiouracil selectively reduce cell proliferation, cause DNA double-strand break and trigger caspase-mediated apoptosis through JNK/p38 pathways in human acute promyelocytic leukemia cells” (Scientific Reports, 2019).
